Experimental data from publication PMC3256188, “Novel Nonphosphorylated Peptides with Conserved Sequences Selectively Bind to Grb7 SH2 Domain with Affinity Comparable to Its Phosphorylated Ligand” (PLoS ONE, 2012).
Non-standard residues stand in square brackets, D forms with d. No end group written: not given here. pY = N[C@@H](Cc1ccc(OP(=O)(O)O)cc1)C(=O)O

How the values were obtained:
[1] = target: T1, GFP-Grb7 SH2 domain and 41-mRLUC-3×Flag complex (Homo sapiens, UniProt Q14451); test: Competition immunoprecipitation, GFP-Grb7 SH2 domain and 41-mRLUC-3×Flag complex; assay type: binding
T1 construct: expressed in transfected cells; host or cells: HEK293T
Text: To see whether the nonphosphorylated peptide could effectively compete with phosphorylated ligand for binding to the Grb7 SH2 domain, the phosphorylated ligand pY (1180) (DEEYEpY(1180)MNRRR), which was previously shown to interact with the Grb7 SH2 domain [6], and the nonphosphorylated 41-A ligand ([…]), which contains the first twenty-two amino acid-motif close to the N-terminus of peptide 41, were examine for their abilities to interfere with the GFP-Grb7 SH2 domain and 41-mRLUC-3×Flag complex using immunoprecipitation with anti-GFP antibody.
The phosphorylated ligand pY (1180) (DEEYEpY(1180)MNRRR) from the ErbB3 and the nonphosphorylated peptide 41-A ([…] RV) from nonphosphorylated peptide 41 were synthesized by the China Peptides Co., Ltd. The HPLC purification analysis and MS quality analysis reports were obtained.
HEK293T cells were washed 5 times with ice-cold PBS buffer and scraped off the plates into cell lysis buffer (1% Nonidet P-40, 0.02 M TRIS (pH 7.5), 0.15 M sodium chloride, 0.001 M EDTA, 0.5% sodium deoxycholate, 0.1% SDS and 0.001 M PMSF). Lysates were incubated on ice for 5 minutes, vortexed 2 times for 30 seconds each and centrifuged at 12,000 rpm for 15 minutes at 4°C. After centrifuging twice, the supernatant was incubated with anti-Flag antibody (1∶100, M20008M, Abmart, China) for 6–8 h at 4°C. Protein G agarose (40 µL) was added into 1 mL of the above mixture and coupled to the anti-Flag antibody for 3 h at 4°C. The immunoprecipitates were washed 2–3 times with PBS buffer (PH 7.4), and the sediments were diluted with 5×SDS electrophoresis buffer and heated at 97°C for 10 minutes. The proteins were separated by SDS-PAGE and transferred to PVDF membranes (IPVH00010, Millipore, USA). The membranes were incubated with anti-GFP antibody (1∶2000, P30010, Abmart, China) and goat anti-rabbit secondary antibody (1∶4000, M21002, Abmart, China) to identify target proteins. For the competition analyses, the immunoprecipitation complexes were mixed with anti-Flag antibody and different concentrations of the synthesized phosphorylated ligands or the nonphosphorylated ligands. The proteins were separated by SDS-PAGE, and the SH2 domain of Grb7 protein was analyzed using anti-GFP antibody. Western blot analysis was carried out using the Image J [37], the IC50 values were calculated by regression analyses using SPSS 17.0.

[2] = tested on: Grb7 SH2 domain; test: Yeast two-hybrid, Grb7 SH2 domain; assay type: cell-based; conditions: yeast strain CG1945, GAL4 BD-SH2 bait, SD/-Trp-His-Leu selection and three independent improved LacZ tests
Text: To see whether the conserved residues were required for association with the Grb7 SH2 domain, the peptide 10 was used as the mutation template to design three mutated peptides: the N-GIPT deletion mutation (10AM), the C-GIP deletion mutation (10BM) and the both N-GIPT and C-GIP deletion mutation (10CM).
The ABL_1 and Grb2 plasmids were gifts from Professor Ruibao Ren (Brandeis University, USA), and the Grb7 (BC006535) and Grb14 cDNA (BC053559) plasmids were from the Proteintech Group. The inserted sequences of the SH2 domains were as follows: Grb7: N-[…]-C; Grb2: N-[…]-C; ABL_1: N-[…]-C; and Grb14: N-[…]-C.
In the mutation assay, the control and mutation sequences were as follows:
The GAL4 BD-SH2 fusion bait plasmids were transformed into the yeast strain CG1945 using the lithium acetate protocol. The transformants were grown on SD/-Trp plates and spread on SD/-Trp-His plates for self-activation estimation. Those transformants without background growth or growth inhibited by 3-amino-1, 2, 4-triazole were selected for the subsequent screening. Approximately 3.01×10^6 clones of the random peptide library (Protocol No. PT303921, Clontech, USA), as AD baits, were effectively transformed into yeast strain CG 1945 containing BD bait plasmids and used to be screened according to the MATCHMAKER Two-Hybrid System protocol (Cat. No. 630489, Clontech, USA). Plasmids of potential positive transformants selected on plates with SD/-Trp-His-Leu medium in the primary screening were isolated and retransformed into the CG1945 cells containing the corresponding SH2 bait plasmids. The improved LacZ assay was then performed. Clones that were positive for all of the reporter assays and confirmed by three independent improved LacZ tests were selected for specific interactions.

[3] = tested on: EYFP-tagged Grb7 SH2 domain; test: Bioluminescence Resonance Energy Transfer (BRET) in HEK293T cells; assay type: cell-based; conditions: 36 h after transfection, EYFP-Grb7 SH2 + mRLUC-tagged peptide, coelenterazine 5.9 µM, eighteen group ratios
Text: For the BRET assay, the EYFP fragment was generated by PCR amplification. The ErbB3-mRLUC plasmid was constructed by the Beijing Sino Biological Inc. The SH2 domain of Grb7 was fused to the EYFP fragment, and the nonphosphorylated peptides 10 and 41 were fused to the mRLUC fragment. The Grb7 SH2 domain sequence was inserted at the C-terminus of the EYFP tag.
HEK293T cells at 70%–80% confluency were given fresh DMEM (high glucose) culture medium and transfected with plasmids using the calcium phosphate method. Samples were collected at 36 h after transfection.
In BRET, the Renilla luciferase (mRLUC) is fused to the candidate protein, and the green fluorescent protein mutant (EYFP) is fused to the target protein. Interactions between the two fused proteins bring the luciferase and the green fluorescent protein into close proximity, which promotes resonance energy transfer from mRLUC to EYFP [38]. Then EYFP is […] at 530 nm, and the emission is used to determine the binding between the two interacting proteins. In this study, HEK293T cells were collected at 36 h after transfection, 100 µL of mixed cell suspension was added to the u-bottom 96-well microtiter plates (Corning, USA) before measurement. The measurement of bioluminescence, with rasters of 460/40 nm and 518/20 nm, was performed on Synergy4 Multi-Mode Microplates Readers (BioTek, USA). The BRET reaction was initiated by 5.9 µM coelenterazine (Promega, USA). Data were analyzed by one-factor analysis of variance using SPSS 17.0.

[4] = tested on: SK-BR-3 breast cancer cells; test: MTS cell proliferation assay; assay type: cell-based; conditions: beginning from 24 h (measured 18, 24, 36, 48, 60 h after transfection), absorbance 492 nm, vs mRLUC-3×Flag control, p<0.01
Protocol: For the cell proliferation assay, the anti-Grb7 antibody (N-20, Santa Cruz Biotechnology, USA) and the anti-Flag antibody (M20008M, Abmart, China) were used for the western blot, and MTS (Promega, USA) was used for the analysis of cell proliferation.
The MTS cell proliferation assay was performed to analyze the proliferation of SK-BR-3 breast cancer cells (Cell culture center of PUMC, China) according to the manufacturer's instructions (Promega, USA). SK-BR-3 cells at 70%–80% confluency were transiently transfected respectively with plasmids of 41-mRLUC-3×Flag or mRLUC-3×Flag and Mega Tran 1.0 (OriGene, USA). Beginning from 12 h after transfection, 400 µg/mL G418 (11811-023, Invitrogen, USA) was used to select for the transfected cells. The u-bottom 96-well microtiter plates (Corning, USA) were seeded with approximately 7.50×10^3 cells per well at 18 h after transfection. […] The absorbance at 492 nm of transfected cells and control DMEM medium was measured separately at 18 h, 24 h, 36 h, 48 h and 60 h after transfection on Synergy4 Multi-Mode Microplates Readers (BioTek, USA). The absorbance was adjusted by differences in the absorbance between cell culture medium and control medium without seeded cells. The data were analyzed by double-factor variance analysis using SPSS 17.0.

[5] = target: T2, EGFP-Grb7 SH2 (human); test: co-IP; competition: synthetic peptide (0.0072, 0.036, 0.18 mM) added to the immunoprecipitation complexes of Grb7 SH2 domain and 41-mRLUC-3×Flag; Grb7 SH2 blotted with anti-GFP, bands scanned (ImageJ), IC50 by regression; conditions: one partner purified
T2 construct: SH2 domain of Grb7, inserted at the C terminus of the EGFP tag; also called GFP-Grb7 SH2 domain; Grb7 SH2 domain; source: HEK293T, transfected (calcium phosphate), in lysate; not shown: EGFP, N-terminal, kept
T2 chain: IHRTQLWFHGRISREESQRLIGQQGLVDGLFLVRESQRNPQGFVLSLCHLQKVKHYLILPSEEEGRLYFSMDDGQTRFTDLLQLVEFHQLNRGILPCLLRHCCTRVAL

VAVGIPTQPTTSSEPSPPSNPPWDPGRV [peptide 41-A, synthesized nonphosphorylated ligand containing the first twenty-two amino acid-motif of peptide 41]
interference with binding of the Grb7 SH2 domain to peptide 41 ([1]; 0.0072 mM): did not significantly interfere
interference with binding of the Grb7 SH2 domain to peptide 41 ([1]; 0.036 mM): did not significantly interfere
interference with binding of the Grb7 SH2 domain to peptide 41 ([1]; 0.18 mM): nearly abolished
disruptive effect on the Grb7 SH2 domain/peptide 41 interaction ([1]; Figure 3A, overall, concentration not given): even stronger than that of the pY (1180) ligand
binding affinity to the Grb7 SH2 domain, comparison of 41-A and pY (1180) ([1]; in vitro competition, in words): at least comparable binding affinities to the Grb7 SH2 domain

N-AGVESLGIPNYTPTTPTLLLTRPLP RGLRGW-C (AGVESLGIPNYTPTTPTLLLTRPLPRGLRGW; left off: Gal4 activation domain (inferred: two-hybrid prey), end not stated, kept) [10BM, C-GIP deletion mutation of peptide 10]
recognition by / interaction with the Grb7 SH2 domain [2]: None of the three mutations were recognized by the Grb7 SH2 domain

ErbB3: mRLUC-tagged ErbB3, expressed from ErbB3-mRLUC plasmid
BRET luminescence ratio of 530/480 nm [3]: strongest luminescence

N-GMWEGLEGGGVAGVESLGIPNYTPTTPTLLLTRPLPGIPRGLRGWSLLRCCRLLCRNSYITAAPKHHHPLQTSPRGSPGLQEFDIKLIDTVDLEGGPGTQFAL-C [peptide 10, nonphosphorylated peptide identified from random peptide library; mutation template]
BRET luminescence ratio of 530/480 nm [3]: significantly stronger
BRET luminescence ratio of 530/480 nm ([3]; listed as Peptide 10): slightly stronger BRET signals compared to peptide 41

N-AGVESL YTPTTPTLLLTRPLPGIPRGLRGW-C [10AM, N-GIPT deletion mutation of peptide 10]
recognition by / interaction with the Grb7 SH2 domain [2]: None of the three mutations were recognized by the Grb7 SH2 domain

N-AGVESLYTPTTPTLLLTRPLPRGLRGW-C [peptide 10CM, both N-GIPT and C-GIP deletion mutation of peptide 10]
BRET luminescence ratio of 530/480 nm [3]: non-interacting
recognition by / interaction with the Grb7 SH2 domain [2]: None of the three mutations were recognized by the Grb7 SH2 domain

B1: 41-mRLUC-3×Flag: fusion protein of peptide 41 with mRLUC and 3×Flag, expressed from transfected plasmid (protein)
chain: VGTWTTRGPWCPCVAVGIPTQPTTSSEPSPPSNPPWDPGRVLLGRIVWPGLLALGIPTHHQNDTYNSPHAHPNRDP
modifications: left off: mRLUC, C-terminal, kept | 3×Flag, C-terminal, kept
notes: fusion protein of peptide 41 with mRLUC and 3×Flag, expressed from transfected plasmid
proliferation of transfected SK-BR-3 cells (MTS absorbance) [4]: significantly slower than that of the mRLUC-3×Flag control group

B2: nonphosphorylated 41-A ligand (peptide)
peptide: VAVGIPTQPTTSSEPSPPSNPPWDPGRV
notes: stretch of peptide 41 with its first 22-residue motif; also called peptide 41-A; source: synthetic peptide (China Peptides Co., Ltd.)
IC50 [5]: 18.8 µM

B3: phosphorylated ligand pY (1180) from ErbB3 (peptide)
peptide: DEEYE[pY]MNRRR
notes: ErbB3 stretch around Y1180; source: synthetic peptide (China Peptides Co., Ltd.)
IC50 [5]: 31.8 µM
